Data as given in ChEMBL document CHEMBL1135005, “Synthesis and biological evaluation of aristolactams” (Bioorg Med Chem Lett, 2002).

Tested on: L1210
Assay: In vitro cytotoxic activity against L1210 murine leukemia cells
Format: functional, cell-based
Details: Mus musculus

Structure (SMILES)	IC50
COc1cc2cc3c4c(cccc4c2c(OC)c1OCc1ccccc1)C(=O)N3CCCC=O	17.6 µM
CCOC(CCN1C(=O)c2cc3c(c4c2c1cc1c(OC)c(OC(C)C)c(OC)cc14)OCO3)OCC	16.3 µM
CCOC(CCCN1C(=O)c2cccc3c2c1cc1cc(OC)c(OCc2ccccc2)c(OC)c13)OCC	21.2 µM
CN1C(=O)c2ccc(OCc3ccccc3)c3c2c1cc1cc(OCc2ccccc2)ccc13	79.2 µM
COc1ccc2cc3c4c(cc(OC)cc4c2c1)C(=O)N3CCC=O	5.2 µM
COc1ccc(CN2C(=O)c3cc(OCc4ccccc4)cc4c3c2cc2cc(OC)c(OCc3ccccc3)c(OC)c24)cc1	> 100 µM
COc1cc2c3c(cc4cc(OC)c(O)c(OC)c4c3c1)N(C)C2=O	1.6 µM
COc1cc2cc3c4c(cccc4c2c(OC)c1OCc1ccccc1)C(=O)N3CCCCN(C)C	10.8 µM
COc1cc2c3c(cc4cc(OC)c(O)c(OC)c4c3c1)N(CCCN(C)C)C2=O	5.4 µM
CCOC(CCN1C(=O)c2cc(OC)cc3c2c1cc1ccc(OC)cc13)OCC	> 10 µM
COc1ccc(CN2C(=O)c3cc(OC)cc4c3c2cc2cc(OC)ccc24)cc1	66.6 µM
COc1ccc(CN2C(=O)c3cc(O)cc4c3c2cc2cc(OC)c(O)c(OC)c24)cc1	2.6 µM
CCN(CC)CCN1C(=O)c2cc(OC)cc3c2c1cc1cc(OC)c(O)c(OC)c13	2.3 µM
COc1ccc(CN2C(=O)c3cc(OC)cc4c3c2cc2cc(OC)c(OC)c(OC)c24)cc1	> 10 µM
COc1cc2c3c(cc4ccc(O)cc4c3c1)N(CCCN(C)C)C2=O	1.6 µM
COc1cc2c(cc3c4c(cc5c(c42)OCO5)C(=O)N3CCCN(C)C)c(OC)c1OC(C)C	4.3 µM
COc1cc2c(cc3c4c(cc5c(c42)OCO5)C(=O)N3CCC=O)c(OC)c1OC(C)C	7.8 µM
COc1cc2c3c(cc4cc(OC)c(OCc5ccccc5)c(OC)c4c3c1)N(CCC=O)C2=O	4.7 µM
COc1cc2cc3c4c(cccc4c2c(OC)c1O)C(=O)N3CCCCN(C)C	1.8 µM
COc1cc2c3c(cc4cc(OC)c(OCc5ccccc5)c(OC)c4c3c1)N(C)C2=O	> 10 µM
